In US20240343699A1, “DERIVATIVES OF SUBSTITUTED MORPHOLINES AND USES THEREOF” (Supernus Pharmaceuticals, Inc., priority 2023, published 2024):

Experiments:
[1] = test system: rat red blood cells; assay: Hemolysis in rat blood; format: cell-based
Protocol: Stability of Test Articles at Different pH Values. 10 mM stock solutions of COMPOUND A were prepared in DMSO. From this stock solution, a single concentration in a 10 μL aliquot was added to three fluid matrices: SGF at pH 2.0 (gastric), SIF at pH 6.0 (upper intestine), and PBS at 7.4 (systemic). The final volume was 1 mL (0.1 mM). The preparations were then incubated at 37° C. and samples were collected at 0, 15, 30, 60, and 120 min for analysis of parent material by LC/MS/MS. The collected sample was quenched in acetonitrile/0.1% formic acid mixture. Red Blood Cell (RBC): Human and rat blood were centrifuged to separate out red blood cells at […] for 15 min. The upper plasma level was aspirated with a micropipette and placed in a bleach solution for disposal. The RBC pellet was resuspended in sterile isotonic saline. The pellet was gently resuspended by rocking the tube. The sample was then centrifuged again to collect the RBC pellet and then resuspended and washed one more time following the same procedure. A total of three was done. Following the last wash and centrifugation, the RBCs were resuspended with PBS; and mixed by inversion. Aliquots of the resuspended and washed RBCs were then placed into 4 reaction tubes. These tubes were centrifuged to collect the RBCs. The fluid level was marked on each tube, then the supernatant was aspirated off and the cells resuspended with room temperature PBS pH 7.4 to the original mark. An aliquot of the RBC suspension was added to four sterile tubes containing PBS pH 7.4 at room temperature.
Stability in Human and Rat Red Blood cells and Hemolysis. […] After centrifugation, 70 μL of supernatant (without disturbing the pellet) was transferred to a clean and clear polystyrene flat bottomed 96-well plate and the absorbance of the sample at a single wavelength was measured using a Bio Tech Synergy Hl Plate Reader at a wavelength of 410 nm. […] Stability was measured by measuring loss of parent compound using LC/MS/MS.

[2] = Stability in rat gut microbiota (fecal matter); format: in vitro ADME; conditions: pH 6 and pH 7.4, 0.5 mM
Protocol: Stability in Rat and Human Gut Microbiota. Rat fecal material was obtained and weighed. One capsule of the raw probiotics was crushed and weighed prior to use. The weighed samples were then solubilized in PBS at pH 6.0 and 7.4 to extract microorganisms. The samples were centrifuged at 18,000×g for 10 min to remove particulates and the supernatant was used to evaluate test article stability. An aliquot (50 μL) of the COMPOUND A stock solution was added to the fecal extract (final concentration 0.5 mM) and allowed to incubate at 37° C. Aliquots were collected at 0, 15, 30, 60, and 120 min and analyzed by LC/MS/MS to determine stability of the parent molecule. The collected sample was quenched in acetonitrile/0.1% formic acid mixture.

[3] = Stability in human plasma with protease inhibitor cocktail and individual amidase/esterase inhibitors; format: in vitro ADME
Protocol: Plasma Preparation. Whole blood was centrifuged at 1174×g for 30 min. Aliquots of the supernatant were then transferred to 5 mL centrifuge tubes.
Stability of COMPOUND A in Human and Rat Plasma (circulating enzymes) in the Presence of Protease Inhibitor Cocktail. COMPOUND A was added to plasma with and without protease inhibitor cocktail and incubated to study inhibition of test article (COMPOUND A) degradation. […] Plasma with and without inhibitor cocktail was aliquoted into 1.5 mL tubes to a volume of 950 μL, then preincubated for 15 min. An aliquot (50 μL) of test article stock solution was added to plasma with and without inhibitor and tubes were vortexed then incubated at 37° C. Degradation began with the addition of test article. Aliquots (50 μL) were taken at 0, 15, 30, 60, and 120 min after being vortexed and were quenched in 150 μL acetonitrile/0.1% formic acid solution and briefly vortexed then immediately frozen at −80° C. Stability was determined by measuring loss of parent compound using LC/MS/MS methods. Each exposure condition and time point were done in triplicate.
Stability of COMPOUND A in Human and Rat Plasma (circulating enzymes) in the Presence of Individual Protease Inhibitors. In addition to using a cocktail of protease inhibitors, individual inhibitors were used in plasma. […] Stability was determined by measuring loss of parent compound using LC/MS/MS methods. […]

## CCOc1ccccc1OC[C@@H]1CN(C(=O)OC(C)OC(=O)[C@@H](N)C(C)C)CCO1 (some centres unmarked) [COMPOUND A]
[1]; rat blood, 25, 50, 100 μM, 1 hr
  hemolysis (% RBC lysis): no detectable hemolysis
[1]; rat blood, 60 min exposure
  EC50 (% RBC lysis): outside the concentration range tested
[2]
  stability in rat fecal matter: time-dependent decrease in the amount of parent compound
[3]; fresh human and rat plasma with amidase and esterase inhibitors
  degradation accounted for by esterase and amidase enzymes: ~100%
[3]; plasma, 60 min incubation
  Human proteolytic activity relative to rat proteolytic activity: about 3 fold
